# Source: patent US11395857B2, “Radiolabeled melanocortin 1 receptor-specific alpha-melanocyte-stimulating hormone analogues for imaging or therapy” (PROVINCIAL HEALTH SERVICES AUTHORITY, priority 2018, dated 2022)
# Key:
# [1] = tested on: SK-MEL-1 human melanoma; test: SPECT/CT imaging of mice bearing SK-MEL-1 human melanoma; format: in vivo, NRG mice; details: 24 h p.i.
# Procedure: SPECT/CT imaging experiments were conducted using the same conditions as described in Example 3. […] (FIG. 6).
# [2] = tested on: B16F10 mouse melanoma; test: SPECT/CT imaging of mice bearing B16F10 mouse melanoma; format: in vivo, C57BL/6J mice; details: 24 h p.i.
# Procedure: SPECT/CT imaging experiments were conducted using a preclinical U-SPECT-II/CT scanner (MILabs). For SPECT scans, each tumour-bearing mouse was injected with approximately 37 MBq of ^177Lu-labeled αMSH analogues via tail vein under anesthesia. After the injection, mice were allowed to recover and roam freely in their cages. At 1, 4, 24, and 120 h p.i., the mice were sedated again with 2% isoflurane inhalation and positioned in the scanner, and kept warm by a heating pad. A 3 min CT scan was conducted to acquire anatomical information, followed by a 60 min static emission scan in list mode with an extra ultrahigh-sensitivity multipinhole mouse collimator. The images were reconstructed using the ordered subset expectation maximization algorithm (4 iterations, 32 subsets) and a 1 mm post-processing Gaussian filter. The radioactivity in the SPECT scans were decay corrected to the injection time in the PMOD software, and converted to DICOM for quantitation and visualization in the Inveon Research Workplace software (Siemens). SPECT images of all six αMSH analogues radiolabeled with ^177Lu in mice bearing B16F10 mouse melanoma at 24 h p.i. are showing in FIG. 5. […] The sustained tumour uptake is particularly beneficial for radioligand therapy.
compound,measurement,setting,value
"CCCC[C@H](NC(=O)CN1CCC(NC(=O)[C@H](CCCCNC(=O)CN2CCN(CC(=O)O)CCN(CC(=O)O)CCN(CC(=O)O)CC2)NC(=O)[C@H](CCC(=O)O)NC(=O)CCCc2ccc(I)cc2)CC1)C(=O)N[C@H]1CC(=O)NCCCC[C@@H](C(N)=O)N(C)C(=O)[C@H](Cc2c[nH]c3ccccc23)NC(=O)[C@H](CCCNC(=N)N)N(C)C(=O)[C@@H](Cc2ccccc2)NC(=O)[C@H](Cc2c[nH]cn2)NC1=O [^177Lu-labeled CCZ01118, metal not drawn]",Tumour uptake / retention in SPECT images,[1],lower tumour uptake was observed
same,Tumour visualization with SPECT imaging,[2],clearly visualized
